Results published in US9695171B2, “3,4-disubstituted-1 H-pyrrolo[2,3-b]pyridines and 4,5-disubstituted-7H-pyrrolo[2,3-c]pyridazines as LRRK2 inhibitors” (Pfizer Inc., priority 2013, dated 2017).

Biological target: T1, GST-tagged truncated LRRK2 (Homo sapiens, UniProt Q5S007)
T1 construct: GST-tagged truncated LRRK2 from Invitrogen (Cat # PV4874); GST; purchased Invitrogen PV4874
Test: LRRK2 kinase assay (Lantha Screen)
Format: biochemical
Conditions: 1 mM ATP (head); a = geometric mean of >=4 determinations, b = single determination; read-out: LRRK2 LANTHA EC50 at 1 mM ATP; Geometric mean of 2-3 determinations unless otherwise indicated
Method: LRRK2 kinase activity was measured using Lantha Screen technology from Invitrogen. GST-tagged truncated LRRK2 from Invitrogen (Cat # PV4874) was incubated with a fluorescein-labeled peptide substrate based upon ezrin/radixin/moesin (ERM), also known as LRRKtide (Invitrogen cat # PR8976A), in the presence of a dose response of compound. Upon completion, the assay was stopped and detected with a terbium labeled anti-phospho-ERM antibody (Invitrogen, cat # PR8975A). […] The compound dose response was prepared by diluting compound to a top concentration of 3.16 mM in 100% DMSO and serial diluted by half-log in DMSO 11 times. Aliquots (3.5 μL) of the 100% DMSO dose response were mixed with 46.5 μL water then 1 μL of this mixture was added to the 3 μL substrate mix in the 384-well plate. The kinase reaction was started with 3 μL of a working solution of LRRK2 enzyme at a concentration of 4 μg/mL. […] The reaction was allowed to progress at room temperature for two hours and then stopped with the addition of 7 μL of detection buffer (20 mM Tris pH 7.6, 0.01% NP-40, 0.02% NaN3, 6 mM EDTA with 2 nM terbium labeled anti-phospho-ERM). After an incubation of 1 hour at room temperature, the plate was read on an Envision with an excitation wavelength of 340 nm and a reading emission at both 520 nm and 495 nm. The ratio of the 520 nm and 495 nm emission was used to analyze the data.

T1 sequence (Q5S007 970-2527 limits assumed): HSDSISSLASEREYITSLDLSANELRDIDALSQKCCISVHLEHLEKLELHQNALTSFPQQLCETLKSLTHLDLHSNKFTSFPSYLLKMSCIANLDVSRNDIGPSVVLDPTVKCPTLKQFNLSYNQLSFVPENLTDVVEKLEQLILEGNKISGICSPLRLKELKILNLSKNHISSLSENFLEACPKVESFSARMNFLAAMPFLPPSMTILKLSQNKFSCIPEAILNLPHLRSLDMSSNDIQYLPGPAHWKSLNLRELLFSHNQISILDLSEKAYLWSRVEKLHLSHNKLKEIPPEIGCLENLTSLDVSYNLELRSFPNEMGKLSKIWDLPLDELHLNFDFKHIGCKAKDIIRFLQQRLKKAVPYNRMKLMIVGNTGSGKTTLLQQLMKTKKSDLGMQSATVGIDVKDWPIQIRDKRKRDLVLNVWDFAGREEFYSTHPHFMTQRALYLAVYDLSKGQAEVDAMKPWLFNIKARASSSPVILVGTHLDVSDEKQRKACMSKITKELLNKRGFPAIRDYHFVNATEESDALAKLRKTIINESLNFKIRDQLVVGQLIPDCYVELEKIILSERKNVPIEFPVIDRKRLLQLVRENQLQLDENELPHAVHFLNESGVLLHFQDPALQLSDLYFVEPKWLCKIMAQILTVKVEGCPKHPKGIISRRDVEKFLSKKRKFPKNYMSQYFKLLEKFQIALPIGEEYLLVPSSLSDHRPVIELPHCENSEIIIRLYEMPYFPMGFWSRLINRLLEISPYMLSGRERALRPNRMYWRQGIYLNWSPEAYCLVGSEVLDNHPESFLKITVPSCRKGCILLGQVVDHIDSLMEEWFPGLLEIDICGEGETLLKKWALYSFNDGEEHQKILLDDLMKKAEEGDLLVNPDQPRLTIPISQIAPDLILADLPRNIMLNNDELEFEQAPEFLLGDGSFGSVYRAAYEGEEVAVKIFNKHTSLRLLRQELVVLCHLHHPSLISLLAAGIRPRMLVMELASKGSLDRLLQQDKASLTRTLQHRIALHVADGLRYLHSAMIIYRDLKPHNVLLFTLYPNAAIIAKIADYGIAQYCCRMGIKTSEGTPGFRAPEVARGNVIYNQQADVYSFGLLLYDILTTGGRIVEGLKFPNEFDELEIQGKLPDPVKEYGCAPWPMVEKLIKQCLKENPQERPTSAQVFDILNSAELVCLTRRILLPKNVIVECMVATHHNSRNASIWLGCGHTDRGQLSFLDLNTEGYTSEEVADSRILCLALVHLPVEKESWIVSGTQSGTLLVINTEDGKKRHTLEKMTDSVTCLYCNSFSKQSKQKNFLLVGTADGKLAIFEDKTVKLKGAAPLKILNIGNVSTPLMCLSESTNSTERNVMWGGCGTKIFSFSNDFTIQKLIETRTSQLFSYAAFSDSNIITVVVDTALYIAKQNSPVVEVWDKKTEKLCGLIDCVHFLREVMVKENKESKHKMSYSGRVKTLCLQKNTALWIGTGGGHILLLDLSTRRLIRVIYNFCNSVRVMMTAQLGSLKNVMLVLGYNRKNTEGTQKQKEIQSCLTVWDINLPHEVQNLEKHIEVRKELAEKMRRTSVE

| SMILES | EC50 [nM] |
| --- | --- |
| N#Cc1cccc(-c2c[nH]c3nccc(N4CCOCC4)c23)c1 [Example 1, 3-[4-(Morpholin-4-yl)-1H-pyrrolo[2,3-b]pyridin-3-yl]benzonitrile] | 4.28 |
| N#Cc1cccc(-c2c[nH]c3nccc(N4CCOCC4)c23)c1F [Example 2, 2-Fluoro-3-[4-(morpholin-4-yl)-1H-pyrrolo[2,3-b]pyridin-3-yl]benzonitrile] | 5.17 |
| c1cnn2c(-c3c[nH]c4nccc(N5CCOCC5)c34)cnc2c1 [Example 3, 3-[4-(Morpholin-4-yl)-1H-pyrrolo[2,3-b]pyridin-3-yl]imidazo[1,2-b]pyridazine] | 14 |
| Cn1cc(-c2c[nH]c3nccc(N4CCOCC4)c23)cc1C#N [Example 4, 1-Methyl-4-[4-(morpholin-4-yl)-1H-pyrrolo[2,3-b]pyridin-3-yl]-1H-pyrrole-2-carbonitrile] | 2.85 |
| Cn1cc(-c2c[nH]c3nccc(N4CCOCC4)c23)nc1C#N [Example 5, 1-Methyl-4-[4-(morpholin-4-yl)-1H-pyrrolo[2,3-b]pyridin-3-yl]-1H-imidazole-2-carbonitrile] | 5.26 |
| Cn1cc(-c2c[nH]c3nncc(N4CCOCC4)c23)cc1C#N [Example 6, 1-Methyl-4-[4-(morpholin-4-yl)-7H-pyrrolo[2,3-c]pyridazin-5-yl]-1H-pyrrole-2-carbonitrile] | 14.2 |
| Cn1cc(-c2c(Cl)[nH]c3nccc(N4CCOCC4)c23)cc1C#N [Example 7, 4-[2-Chloro-4-(morpholin-4-yl)-1H-pyrrolo[2,3-b]pyridin-3-yl]-1-methyl-1H-pyrrole-2-carbonitrile] | 1.3 |
| Cc1[nH]c2nccc(N3CCOCC3)c2c1-c1cccc(C#N)c1 [Example 8, 3-[2-Methyl-4-(morpholin-4-yl)-1H-pyrrolo[2,3-b]pyridin-3-yl]benzonitrile] | 22.1 |
| Cc1cc(N2CCOCC2)c2c(-c3cccc(C#N)c3)c[nH]c2n1 [Example 9, 3-[6-Methyl-4-(morpholin-4-yl)-1H-pyrrolo[2,3-b]pyridin-3-yl]benzonitrile] | 208 |
| N#Cc1cccc(-c2c[nH]c3ncc(CO)c(N4CCOCC4)c23)c1 [Example 10, 3-[5-(Hydroxymethyl)-4-(morpholin-4-yl)-1H-pyrrolo[2,3-b]pyridin-3-yl]benzonitrile] | 79.8 |
| N#Cc1cccc(-c2c[nH]c3ncc(C#N)c(N4CCOCC4)c23)c1 [Example 11, 3-(3-Cyanophenyl)-4-(morpholin-4-yl)-1H-pyrrolo[2,3-b]pyridine-5-carbonitrile] | 24.2 |
| Cn1cc(-c2c[nH]c3nccc(C4=CCOCC4)c23)cn1 [Example 12, 4-(3,6-Dihydro-2H-pyran-4-yl)-3-(1-methyl-1H-pyrazol-4-yl)-1H-pyrrolo[2,3-b]pyridine] | 59.6 |
| Cn1cc(-c2c[nH]c3nccc(N4CCOCC4)c23)cn1 [Example 13, 3-(1-methyl-1H-pyrazol-4-yl)-4-(morpholin-4-yl)-1H-pyrrolo[2,3-b]pyridine] | 26.5 |
| CN(C)c1c(C#N)cnc2[nH]cc(-c3cccc(C#N)c3F)c12 [Example 14, 3-(3-cyano-2-fluorophenyl)-4-(dimethylamino)-1H-pyrrolo[2,3-b]pyridine-5-carbonitrile] | 25.9 |
| COc1ccc(F)cc1-c1c[nH]c2nccc(N3CCOCC3)c12 [Example 15, 3-(5-fluoro-2-methoxyphenyl)-4-(morpholin-4-yl)-1H-pyrrolo[2,3-b]pyridine] | 92.3 |
| COc1cc(F)cc(-c2c[nH]c3nccc(N4CCOCC4)c23)c1 [Example 16, 3-(3-fluoro-5-methoxyphenyl)-4-(morpholin-4-yl)-1H-pyrrolo[2,3-b]pyridine] | 44.3 |
| Cc1[nH]c2nccc(N3CCOCC3)c2c1-c1cnn(C)c1 [Example 17, 2-methyl-3-(1-methyl-1H-pyrazol-4-yl)-4-(morpholin-4-yl)-1H-pyrrolo[2,3-b]pyridine] | 137 |

| SMILES | EC50 [nM] |
| --- | --- |
| Cc1cc(N2CCOCC2)c2c(-c3cccc(C#N)c3F)c[nH]c2n1 [Example 18, 2-fluoro-3-[6-methyl-4-(morpholin-4-yl)-1H-pyrrolo[2,3-b]pyridin-3-yl]benzonitrile] | 95.4 |
| N#Cc1cccc(-c2c[nH]c3nccc(N4CCOCC4)c23)n1 [Example 19, 6-[4-(morpholin-4-yl)-1H-pyrrolo[2,3-b]pyridin-3-yl]pyridine-2-carbonitrile] | 47.5 |
| Clc1cccc(-c2c[nH]c3nccc(N4CCOCC4)c23)c1 [Example 20, 3-(3-chlorophenyl)-4-(morpholin-4-yl)-1H-pyrrolo[2,3-b]pyridine] | 53.7 |
| Fc1cc(Cl)cc(-c2c[nH]c3nccc(N4CCOCC4)c23)c1 [Example 21, 3-(3-chloro-5-fluorophenyl)-4-(morpholin-4-yl)-1H-pyrrolo[2,3-b]pyridine] | 51.5 |
| Fc1ccc(F)c(-c2c[nH]c3nccc(N4CCOCC4)c23)c1 [Example 22, 3-(2,5-difluorophenyl)-4-(morpholin-4-yl)-1H-pyrrolo[2,3-b]pyridine] | 130 |
| Clc1ccccc1-c1c[nH]c2nccc(N3CCOCC3)c12 [Example 23, 3-(2-chlorophenyl)-4-(morpholin-4-yl)-1H-pyrrolo[2,3-b]pyridine] | 143 |
| Fc1cccc(-c2c[nH]c3nccc(N4CCOCC4)c23)c1F [Example 24, 3-(2,3-difluorophenyl)-4-(morpholin-4-yl)-1H-pyrrolo[2,3-b]pyridine] | 16.8 |
| Fc1cccc(-c2c[nH]c3nccc(N4CCOCC4)c23)c1 [Example 25, 3-(3-fluorophenyl)-4-(morpholin-4-yl)-1H-pyrrolo[2,3-b]pyridine] | 34.5 |
| Fc1ccccc1-c1c[nH]c2nccc(N3CCOCC3)c12 [Example 26, 3-(2-fluorophenyl)-4-(morpholin-4-yl)-1H-pyrrolo[2,3-b]pyridine] | 29 |
| Fc1ccc(Cl)cc1-c1c[nH]c2nccc(N3CCOCC3)c12 [Example 27, 3-(5-chloro-2-fluorophenyl)-4-(morpholin-4-yl)-1H-pyrrolo[2,3-b]pyridine] | 57.6 |
| OCc1cccc(-c2c[nH]c3nccc(N4CCOCC4)c23)c1 [Example 28, {3-[4-(morpholin-4-yl)-1H-pyrrolo[2,3-b]pyridin-3-yl]phenyl}methanol] | 96.3 |
| OCc1ccc(F)c(-c2c[nH]c3nccc(N4CCOCC4)c23)c1 [Example 29, {4-fluoro-3-[4-(morpholin-4-yl)-1H-pyrrolo[2,3-b]pyridin-3-yl]phenyl}methanol] | 72.5 |
| Cc1nnc(-c2cccc(-c3c[nH]c4nccc(N5CCOCC5)c34)c2)o1 [Example 30, 3-[3-(5-methyl-1,3,4-oxadiazol-2-yl)phenyl]-4-(morpholin-4-yl)-1H-pyrrolo[2,3-b]pyridine] | 179 |
| COc1cccc(-c2c[nH]c3nccc(N4CCOCC4)c23)c1 [Example 31, 3-(3-methoxyphenyl)-4-(morpholin-4-yl)-1H-pyrrolo[2,3-b]pyridine] | 124 |
| Fc1c(Cl)cccc1-c1c[nH]c2nccc(N3CCOCC3)c12 [Example 32, 3-(3-chloro-2-fluorophenyl)-4-(morpholin-4-yl)-1H-pyrrolo[2,3-b]pyridine] | 40.7 |
| Fc1cc(F)c(F)c(-c2c[nH]c3nccc(N4CCOCC4)c23)c1 [Example 33, 4-(morpholin-4-yl)-3-(2,3,5-trifluorophenyl)-1H-pyrrolo[2,3-b]pyridine] | 69.7 |
